From ChEMBL document CHEMBL1201862, “PubChem BioAssay data set” (2004) come the findings set out here.

Test systems include NCI-H460; NCI-H522; PC-3; M14; RXF 393; IGROV-1; SK-MEL-2; HCT-15; MOLT-4; SK-MEL-5; MDA-MB-231; HL-60; UO-31; KM12; SNB-75; OVCAR-3; CAKI-1; T47D; MDA-MB-435; NCI-H226.
Test in all cases: NCI anticancer screen, dose series, 48 h

Molecules are shown by their SMILES.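 In this assay, cells in 96-well plates receive the compound at five concentrations for 48 hours. Endpoints are linearly interpolated between the surrounding concentrations. GI50 = concentration required for 50% inhibition of growth.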 The source made the active and inactive calls. Rule as the data show it: active = GI50 up to about 1.1 µM and inactive = higher. Some results are limits rather than exact numbers.

Take `CC(C)[Si]1(C(C)C)OCC2OC(n3cnc4c(N)ncnc43)C(N)C2O[Si](C(C)C)(C(C)C)O1` (configuration not stated): the GI50 with NCI-H460 was 4.07 µM (inactive); in the experiment on NCI-H522, 8.04 µM (inactive); with PC-3, 3.16 µM (inactive); with M14, 8.45 µM (inactive); with RXF 393, 8.97 µM (inactive); with IGROV-1, 7.33 µM (inactive). In addition, the GI50 was 6.22 µM (inactive) in the experiment on SK-MEL-2; 6.9 µM with HCT-15; 2.08 µM (inactive) in the experiment with MOLT-4; 2.06 µM (inactive) in the experiment with SK-MEL-5; 13.7 µM (inactive) with MDA-MB-231; 3.78 µM (inactive) in the experiment on HL-60. In addition, the GI50 in the experiment on UO-31 was 3.47 µM (inactive); in the experiment on KM12, 4.1 µM (inactive); with SNB-75, 4.69 µM (inactive); with OVCAR-3, 5.22 µM (inactive); in the experiment on CAKI-1, 11 µM (inactive); with T47D it was 8.15 µM (inactive). Also, the figures for the GI50 in the experiment with MDA-MB-435 and in the experiment on NCI-H226 were 6.75 µM (inactive) and 9.66 µM (inactive), respectively.
Turning to `C=C1[C@H]2O[C@H]2[C@@H](OC(C)=O)[C@@]2(C)[C@@H](OC(C)=O)C[C@@H](OC(=O)CCC)[C@@](C)(O)[C@@H]2[C@@H](OC(C)=O)[C@]2(O)[C@@H](C)C(=O)O[C@H]2[C@H]1Cl`, the GI50 with NCI-H460 was > 100 µM (inactive); with NCI-H522 it was > 100 µM (inactive); in the experiment with PC-3, > 100 µM (inactive); with M14, > 100 µM (inactive); in the experiment with RXF 393, 38.7 µM (inactive); in the experiment with SK-MEL-2, > 100 µM (inactive). Further, the GI50 in the experiment with HCT-15 was more than 100 µM; in the experiment with MOLT-4, > 100 µM (inactive); in the experiment on SK-MEL-5, > 100 µM (inactive); in the experiment on MDA-MB-231 it was > 100 µM (inactive); with HL-60, > 100 µM (inactive); in the experiment with UO-31 it was > 100 µM (inactive). For the same compound, the GI50 in the experiment with KM12, in the experiment with SNB-75, with OVCAR-3, in the experiment on CAKI-1, with T47D and with MDA-MB-435 was > 100 µM (inactive) each time. For the same compound, the GI50 in the experiment on NCI-H226 is 0.159 µM (active).
As to `CCOC(=O)c1sc2nc(SC)nc3c2c1N=CN3c1ccc(Br)cc1`, the GI50 is > 100 µM (inactive) in the experiment with NCI-H460; > 100 µM (inactive) in the experiment on NCI-H522; > 100 µM (inactive) with PC-3; > 100 µM (inactive) with M14; 25.4 µM (inactive) with RXF 393; > 100 µM (inactive) with IGROV-1. In addition, the GI50 in the experiment on SK-MEL-2 was > 100 µM (inactive); with HCT-15, more than 100 µM; with MOLT-4 it was > 100 µM (inactive); in the experiment on SK-MEL-5, > 100 µM (inactive); in the experiment on MDA-MB-231, > 100 µM (inactive); in the experiment with HL-60, > 100 µM (inactive). Besides, the GI50 with UO-31 was > 100 µM (inactive); in the experiment on KM12 it was > 100 µM (inactive); in the experiment with SNB-75 it was 38.2 µM (inactive); with OVCAR-3 it was 24.8 µM (inactive); in the experiment with CAKI-1 it was 98.9 µM (inactive); in the experiment on T47D, > 100 µM (inactive). The GI50 in the experiment on MDA-MB-435 and with NCI-H226 was > 100 µM (inactive) in each case.
As to `CC1(C)OC[C@@]2([C@@H]3CC[C@@H](C3)C2(C)C)N1O`, the GI50 was > 100 µM (inactive) in the experiment with NCI-H460; 62.1 µM (inactive) in the experiment on NCI-H522; 55.8 µM (inactive) in the experiment on PC-3; > 100 µM (inactive) in the experiment on M14; > 100 µM (inactive) in the experiment with RXF 393; > 100 µM (inactive) in the experiment with IGROV-1. Besides, the GI50 in the experiment with SK-MEL-2 is > 100 µM (inactive); in the experiment with HCT-15 it was more than 100 µM; in the experiment with MOLT-4, > 100 µM (inactive); with SK-MEL-5, > 100 µM (inactive); in the experiment with MDA-MB-231 it was > 100 µM (inactive); in the experiment on HL-60, > 100 µM (inactive). The GI50 with KM12, in the experiment with SNB-75, in the experiment on OVCAR-3, in the experiment with CAKI-1, in the experiment with T47D and with MDA-MB-435 was > 100 µM (inactive) throughout. Besides, the GI50 in the experiment on NCI-H226 was > 100 µM (inactive).
For `O=C1N2CCC[C@H]2CS1(=O)=O`, the GI50 was 32.7 µM (inactive) in the experiment with NCI-H460; 5.66 µM (inactive) in the experiment on NCI-H522; 16.5 µM (inactive) in the experiment on PC-3; 14.6 µM (inactive) in the experiment with M14; 7.36 µM (inactive) in the experiment on RXF 393; 15.5 µM (inactive) in the experiment with IGROV-1. For the same compound, the GI50 with SK-MEL-2 was 17.6 µM (inactive); with HCT-15, 12.6 µM; with MOLT-4 it was 3.34 µM (inactive); with SK-MEL-5 it was 17.5 µM (inactive); in the experiment with MDA-MB-231 it was 15.4 µM (inactive); in the experiment on HL-60, 19.1 µM (inactive). Also, the GI50 was 14.5 µM (inactive) in the experiment with UO-31; 16.6 µM (inactive) in the experiment with KM12; 18.6 µM (inactive) in the experiment with SNB-75; 15.8 µM (inactive) in the experiment with OVCAR-3; 5.73 µM (inactive) in the experiment on CAKI-1; 13.5 µM (inactive) in the experiment with T47D. In addition, the GI50 in the experiment with MDA-MB-435 is 17.1 µM (inactive); with NCI-H226, 25.4 µM (inactive).
As to `Cc1cc2c(c3c1c1ccccc1n3C)C(=O)C=CC2=O`, the GI50 in the experiment with NCI-H460 was 33.9 µM (inactive); in the experiment on NCI-H522, 13.9 µM (inactive); with PC-3, 16.9 µM (inactive); in the experiment with M14 it was 25.6 µM (inactive); in the experiment with RXF 393, 15.3 µM (inactive); in the experiment on IGROV-1, 39.6 µM (inactive). Also, the GI50 with SK-MEL-2 was 21.6 µM (inactive); with HCT-15, 13.7 µM; in the experiment with MOLT-4, 2 µM (inactive); in the experiment on SK-MEL-5, 32.3 µM (inactive); in the experiment on MDA-MB-231, 25.7 µM (inactive); with HL-60, 1.45 µM (inactive). The GI50 was 16.1 µM (inactive) in the experiment with UO-31; 25.2 µM (inactive) in the experiment on KM12; 41.6 µM (inactive) in the experiment on SNB-75; 11.5 µM (inactive) in the experiment with OVCAR-3; 23.2 µM (inactive) in the experiment on CAKI-1; 13 µM (inactive) in the experiment on T47D. Besides, the GI50 in the experiment on MDA-MB-435 is 28.8 µM (inactive); in the experiment on NCI-H226, 40.3 µM (inactive).
Take `CC1(C)CC(=O)c2c(-c3ccc(Cl)cc3)c(C#N)c(=S)n(C3OC(CO)C(O)C(O)C3O)c2C1` (configuration not stated): the GI50 was 30.3 µM (inactive) in the experiment on NCI-H460; 35 µM (inactive) with NCI-H522; 17.2 µM (inactive) in the experiment on PC-3; 45.7 µM (inactive) in the experiment with M14; 36.2 µM (inactive) in the experiment on RXF 393; 56.8 µM (inactive) with IGROV-1. Moreover, the GI50 is 19 µM (inactive) in the experiment on SK-MEL-2; 21.4 µM in the experiment on HCT-15; 25 µM (inactive) in the experiment on MOLT-4; 15.2 µM (inactive) in the experiment on SK-MEL-5; 33.5 µM (inactive) with MDA-MB-231; 20.2 µM (inactive) with HL-60. Further, the GI50 with UO-31 is 29.6 µM (inactive); with KM12 it was 37.3 µM (inactive); in the experiment with SNB-75, 25.3 µM (inactive); in the experiment on OVCAR-3, 30.9 µM (inactive); with CAKI-1, 78.7 µM (inactive); in the experiment on T47D it was 18.6 µM (inactive). The figures for the GI50 with MDA-MB-435 and in the experiment with NCI-H226 were 27.9 µM (inactive) and 20.9 µM (inactive), respectively.
Regarding `N#CC(NNC(=O)Cc1ccccc1)c1c(O)ccc2ccccc12` (configuration not stated), the GI50 is 4.25 µM (inactive) with NCI-H460; 3.47 µM (inactive) in the experiment with NCI-H522; 5.33 µM (inactive) in the experiment with PC-3; 5.13 µM (inactive) in the experiment on M14; 7 µM (inactive) with RXF 393; 5.31 µM (inactive) in the experiment on IGROV-1. Further, the GI50 with SK-MEL-2 is 2.92 µM (inactive); in the experiment with HCT-15, 2.7 µM; in the experiment with MOLT-4, 2.23 µM (inactive); with SK-MEL-5 it was 3.46 µM (inactive); in the experiment on MDA-MB-231, 4.19 µM (inactive); with HL-60 it was 1.67 µM (inactive). Also, the GI50 is 2.84 µM (inactive) with UO-31; 4.02 µM (inactive) with KM12; 8.47 µM (inactive) in the experiment on SNB-75; 2.99 µM (inactive) in the experiment with OVCAR-3; 4.91 µM (inactive) in the experiment on CAKI-1; 3.45 µM (inactive) in the experiment with T47D. For the same compound, the GI50 in the experiment with MDA-MB-435 is 10.4 µM (inactive); in the experiment with NCI-H226, 18.4 µM (inactive).
For `CCNCC(=O)Nc1ccc2c(c1)C(=O)c1ccc(NC(=O)CNCC)cc1C2=O`, the GI50 in the experiment on NCI-H460 was 1.49 µM (inactive); in the experiment with NCI-H522, 1.87 µM (inactive); in the experiment with PC-3, 2.76 µM (inactive); with M14 it was 3.5 µM (inactive); with RXF 393 it was 2.53 µM (inactive); with IGROV-1 it was 5.51 µM (inactive). The GI50 in the experiment on SK-MEL-2 is 15.9 µM (inactive); in the experiment on HCT-15, 1.93 µM; in the experiment with SK-MEL-5, 36.4 µM (inactive); in the experiment on MDA-MB-231, 3.3 µM (inactive); in the experiment on HL-60, 3.01 µM (inactive); in the experiment on UO-31, 3.21 µM (inactive). In addition, the GI50 in the experiment with KM12 is 11.7 µM (inactive); in the experiment with SNB-75, 1.41 µM (inactive); with OVCAR-3 it was 2.59 µM (inactive); in the experiment on CAKI-1, 8.77 µM (inactive); in the experiment on T47D, 3.86 µM (inactive); with MDA-MB-435, 2.27 µM (inactive). Moreover, the GI50 with NCI-H226 was 5.51 µM (inactive).
As to `COc1ccc(/C=C/C(=O)/C=C/c2ccc(OC)cc2OC)c(OC)c1`, the GI50 is 5.08 µM (inactive) with NCI-H460; 2.41 µM (inactive) in the experiment on NCI-H522; 12.2 µM (inactive) with PC-3; 7.14 µM (inactive) in the experiment on M14; 3.24 µM (inactive) with RXF 393; 10.1 µM (inactive) in the experiment on IGROV-1. Further, the GI50 in the experiment on SK-MEL-2 is 1.33 µM (inactive); with HCT-15, 3.75 µM; with MOLT-4 it was 4.8 µM (inactive); in the experiment on SK-MEL-5, 3.77 µM (inactive); with MDA-MB-231, 29.9 µM (inactive); in the experiment on HL-60, 3.13 µM (inactive). The GI50 in the experiment with UO-31 is 13.6 µM (inactive); with KM12 it was 33.8 µM (inactive); with SNB-75, 14.9 µM (inactive); in the experiment with OVCAR-3 it was 2.76 µM (inactive); in the experiment on CAKI-1, 5.35 µM (inactive); with T47D it was 4.47 µM (inactive). For the same compound, the GI50 in the experiment on MDA-MB-435 is 2.41 µM (inactive); in the experiment with NCI-H226, 12.9 µM (inactive).
